Reference: patent US12435061B2 (priority 2020, dated 2025)
Values after ≈ are worked out from the molar mass of the structure shown. Read-outs that look alike come from different tables or passages of the source.

Columns and labels:
[1] = biological target: T1, hTRPV3 (Homo sapiens (Human), UniProt Q8NET8); experiment: Whole-cell patch clamp, hTRPV3 Phase 1 / Phase 2 currents; type: cell-based
Outline: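 Whole-cell recordings on induced TRPV3 cells replated on coverslips, held at −40 mV with 400 ms ramps from −120 to +100 mV every 5 s; currents read at −80 and +80 mV. Ringer's external solution; current activated by heating to ≥28 °C or 20 μM 2-APB.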

[2] = biological target: T1, hTRPV3; experiment: hTRPV3 HAMA IC50 assay (Hamamatsu FDSS6000 calcium flux, TRex-293 cells)
Protocol: IC50s were calculated using CBIS from ChemInnovation (San Diego).

[3] = Aqueous solubility assay in Normal Ringer Solution; details: Normal Ringer Solution, saline or isotonic, kinetic from dmso stock
Protocol: Following vortex and incubation for a sufficient time (e.g. 40 minutes at room temperature), solutions were filtered, quenched with acetonitrile, and analyzed by Liquid Chromotography. Solubility Limits were determined by comparison to a standard curve.

[4] = Metabolic Stability assay, rat liver microsomes; type: in vitro ADME; details: read-out: LM T1/2 (min) rat
Outline: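 Test article at 1 μM starting concentration incubated with human or rat liver microsomes at 37 °C, with the reaction started by NADPH regeneration components. Aliquots were quenched in cold acetonitrile/MeOH/H2O at 0, 7, 15, 30 and 60 min and analysed by HPLC/MS/MS.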

[5] = Phase 1 current, inward, whole-cell patch clamp, read-out: hTRPV3 Patch P1 Inwd
[6] = Phase 1 current, read-out: hTRPV3 (nM) (Phase 1)
[7] = Phase 2 current, inward, whole-cell patch clamp, read-out: hTRPV3 Patch P2 Inwd
[8] = Phase 2 current, read-out: hTRPV3 (nM) (Phase 2)
[9] = Phase 1 current, human TRPV3, read-out: hTRPV3 (nM) Phase 1

T1 sequence (Q8NET8 whole entry): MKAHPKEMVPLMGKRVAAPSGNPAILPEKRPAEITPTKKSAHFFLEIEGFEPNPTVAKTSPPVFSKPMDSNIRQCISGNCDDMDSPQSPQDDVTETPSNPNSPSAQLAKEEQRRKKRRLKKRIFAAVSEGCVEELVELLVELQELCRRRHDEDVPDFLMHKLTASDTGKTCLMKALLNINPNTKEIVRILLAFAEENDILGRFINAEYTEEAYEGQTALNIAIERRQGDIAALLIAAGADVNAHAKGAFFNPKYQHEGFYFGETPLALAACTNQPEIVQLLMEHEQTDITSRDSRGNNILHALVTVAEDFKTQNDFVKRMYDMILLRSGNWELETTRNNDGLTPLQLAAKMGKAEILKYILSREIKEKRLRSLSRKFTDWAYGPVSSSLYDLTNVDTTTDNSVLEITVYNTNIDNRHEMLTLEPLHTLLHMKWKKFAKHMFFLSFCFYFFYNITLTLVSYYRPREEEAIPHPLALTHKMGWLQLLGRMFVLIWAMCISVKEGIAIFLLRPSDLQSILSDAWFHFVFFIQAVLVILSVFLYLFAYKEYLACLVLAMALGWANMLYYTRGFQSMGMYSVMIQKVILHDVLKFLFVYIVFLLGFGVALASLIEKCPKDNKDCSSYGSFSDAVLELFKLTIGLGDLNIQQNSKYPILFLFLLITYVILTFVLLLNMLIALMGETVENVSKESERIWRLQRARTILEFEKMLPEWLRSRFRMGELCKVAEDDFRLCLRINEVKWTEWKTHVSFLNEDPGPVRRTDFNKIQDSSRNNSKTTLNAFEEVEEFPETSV

SMILES: FC(F)(F)c1ccc(O[C@H]2CCN(c3ccccc3-c3ccccc3)C2)nc1 [Compound 1-27, (S)-2-(1-(biphenyl-2-yl)pyrrolidin-3-yloxy)-5-(trifluoromethyl)pyridine]
- IC50 [1, 5]: > 1000 nM
- IC50 [1, 6]: > 3200 nM
- hTRPV3 HAMA IC50 (nM) (5 min) [2]: no fit (5 min)

SMILES: FC(F)(F)c1ccc(O[C@@H]2CCN(c3ccccc3-c3ccccc3)C2)nc1 [Compound 1-28, (R)-2-(1-(biphenyl-2-yl)pyrrolidin-3-yloxy)-5-(trifluoromethyl)pyridine]
- IC50 [1, 5]: > 1000 nM
- IC50 [1, 6]: > 3200 nM
- hTRPV3 HAMA IC50 (nM) (5 min) [2]: no fit (5 min)

SMILES: N#Cc1cc(-c2ccccc2)ccc1N1CC[C@H](Oc2ccc(C(F)(F)F)cn2)C1 [Compound 1-56, (S)-4-(3-(5-(trifluoromethyl)pyridin-2-yloxy)pyrrolidin-1-yl)biphenyl-3-carbonitrile]
- IC50 [1, 7]: 100 to 1000 nM
- IC50 [1, 8]: ~504 nM
- hTRPV3 HAMA IC50 (nM) (5 min) [2]: R2 fail (5 min)

SMILES: O=[N+]([O-])c1ccccc1N1CC[C@H](Oc2ccc3cc(Cl)ccc3n2)C1 [Compound 1-68, (S)-6-chloro-2-(1-(2-nitrophenyl)pyrrolidin-3-yloxy)quinoline]
- IC50 [1, 5]: > 1000 nM
- IC50 [1, 6]: > 3200 nM
- IC50 [1, 7]: > 1000 nM
- IC50 [1, 8]: > 3200 nM
- hTRPV3 HAMA IC50 (nM) (5 min) [2]: no fit (5 min)

SMILES: Nc1ccccc1N1CC[C@H](Oc2ccc3cc(Cl)ccc3n2)C1 [Compound 1-69, (S)-2-(3-(6-chloroquinolin-2-yloxy)pyrrolidin-1-yl)aniline]
- hTRPV3 (nM) (Phase 2) ([1]; Phase 2 current): Agonist (Phase 2)
- hTRPV3 HAMA IC50 (nM) (5 min) [2]: no fit (5 in)

SMILES: O=[N+]([O-])c1cc(-c2ccccc2)ccc1N1CC[C@H](Oc2ccc3cc(Cl)ccc3n2)C1 [Compound 1-70, (S)-6-chloro-2-(1-(3-nitrobiphenyl-4-yl)pyrrolidin-3-yloxy)quinoline]
- IC50 [1, 5]: > 1000 nM
- IC50 [1, 6]: > 3200 nM
- IC50 [1, 7]: > 1000 nM
- IC50 [1, 8]: > 3200 nM
- hTRPV3 HAMA IC50 (nM) (5 min) [2]: no fit (5 min)

SMILES: Nc1cc(-c2ccccc2)ccc1N1CC[C@H](Oc2ccc3cc(Cl)ccc3n2)C1 [Compound 1-71, (S)-4-(3-(6-chloroquinolin-2-yloxy)pyrrolidin-1-yl)biphenyl-3-amine]
- IC50 [1, 6]: > 3200 nM
- IC50 [1, 8]: > 3200 nM
- IC50 ([1]; hTRPV3 Patch P1 Inwd (nM), Phase 1 current, inward, whole-cell patch clamp): > 1000 nM
- IC50 ([1]; hTRPV3 Patch P2 Inwd (nM), Phase 2 current, inward, whole-cell patch clamp): > 1000 nM
- hTRPV3 HAMA IC50 (nM) (5 min) [2]: no fit (5 min)

SMILES: NC(=O)c1c(-c2ccccc2)cccc1N1CC[C@H](Oc2ccc(C(F)(F)F)cn2)C1 [Compound 1-72, (S)-3-(3-(5-(trifluoromethyl)pyridin-2-yloxy)pyrrolidin-1-yl)biphenyl-2-carboxamide]
- hTRPV3 (nM) (Phase 1) ([1]; Phase 1 current): Agonist
- IC50 [1, 7]: > 1000 nM
- IC50 [1, 8]: > 3200 nM
- hTRPV3 HAMA IC50 (nM) (5 min) [2]: no fit (5 min)

SMILES: CCOC(=O)COc1cc(-c2ccccc2)ccc1N1CC[C@H](Oc2ccc(C(F)(F)F)cn2)C1 [Compound 1-134, (S)-ethyl 2-(4-(3-(5-(trifluoromethyl)pyridin-2-yloxy)pyrrolidin-1-yl)biphenyl-3-yloxy)acetate]
- IC50 [1, 5]: > 1000 nM
- IC50 [1, 6]: ~4820 nM
- IC50 [1, 7]: > 1000 nM
- IC50 [1, 8]: > 3200 nM
- hTRPV3 HAMA IC50 (nM) (5 min) [2]: no fit (5 min)

SMILES: OCc1cc(-c2ccccc2C(F)(F)F)ccc1N1CC[C@H](Oc2ccc(C(F)(F)F)cn2)C1 [Compound 1-152, (S)-(2′-(trifluoromethyl)-4-(3-(5-(trifluoromethyl)pyridin-2-yloxy)pyrrolidin-1-yl)biphenyl-3-yl)methanol]
- IC50 [1, 5]: 10 to 100 nM
- IC50 [1, 6]: 20.4 nM
- hTRPV3 HAMA IC50 (nM) (5 min) [2]: no fit (5 min)

SMILES: CCc1ccccc1-c1ccc(N2CC[C@H](Oc3ccc(C)cn3)C2)c(CO)n1 [Compound 1-185, (S)-(6-(2-ethylphenyl)-3-(3-(5-methylpyridin-2-yloxy)pyrrolidin-1-yl)pyridin-2-yl)methanol]
- IC50 [1, 5]: > 1000 nM
- IC50 [1, 6]: > 3200 nM
- IC50 [1, 7]: > 1000 nM
- IC50 [1, 8]: 2950 nM
- hTRPV3 HAMA IC50 (nM) (5 min) [2]: no fit (5 min) no fit (30 min)
- hTRPV3 HAMA IC50 (nM) (30 min) [2]: no fit (5 min) no fit (30 min)

SMILES: COc1ccccc1-c1ccc(N2CC[C@H](Oc3ncccc3C)C2)c(CO)n1 [Compound 1-186, (S)-(6-(2-methoxyphenyl)-3-(3-(3-methylpyridin-2-yloxy)pyrrolidin-1-yl)pyridin-2-yl)methanol]
- IC50 [1, 5]: > 1000 nM
- IC50 [1, 6]: 1010 nM
- IC50 [1, 7]: 100 to 1000 nM
- IC50 [1, 8]: 980 nM
- hTRPV3 HAMA IC50 (nM) (5 min) [2]: no fit (5 min) no fit (30 min)
- hTRPV3 HAMA IC50 (nM) (30 min) [2]: no fit (5 min) no fit (30 min)

SMILES: CCc1ccccc1-c1ccc(N2CC[C@H](Oc3ncccc3C)C2)c(CO)n1 [Compound 1-187, (S)-(6-(2-ethylphenyl)-3-(3-(3-methylpyridin-2-yloxy)pyrrolidin-1-yl)pyridin-2-yl)methanol]
- IC50 [1, 5]: 100 to 1000 nM
- IC50 [1, 6]: 720 nM
- IC50 [1, 7]: > 1000 nM
- IC50 [1, 8]: ~1000 nM
- hTRPV3 HAMA IC50 (nM) (5 min) [2]: no fit (5 min) no fit (30 min)
- hTRPV3 HAMA IC50 (nM) (30 min) [2]: no fit (5 min) no fit (30 min)

SMILES: OCc1ncc(-c2ccccc2)cc1N1CC[C@H](Oc2ccc(C(F)(F)F)cn2)C1 [Compound 1-188, (S)-(5-phenyl-3-(3-(5-(trifluoromethyl)pyridin-2-yloxy)pyrrolidin-1-yl)pyridin-2-yl)methanol]
- IC50 [1, 5]: > 1000 nM
- IC50 [1, 6]: > 3200 nM
- hTRPV3 HAMA IC50 (nM) (5 min) [2]: no fit (5 min) no fit (30 min)
- hTRPV3 HAMA IC50 (nM) (30 min) [2]: no fit (5 min) no fit (30 min)

SMILES: Cc1cccnc1O[C@H]1CCN(c2ccc(-c3ccccc3Cl)cc2CCO)C1 [Compound 1-194, (S)-2-(2′-chloro-4-(3-(3-methylpyridin-2-yloxy)pyrrolidin-1-yl)biphenyl-3-yl)ethanol]
- IC50 [1, 5]: 100 to 1000 nM
- IC50 [1, 6]: 327 nM
- hTRPV3 HAMA IC50 (nM) (5 min) [2]: no fit (5 min)

SMILES: Cc1ccc(O[C@H]2CCN(c3ccc(-c4ccccn4)cc3CO)C2)nc1 [Compound 1-220, (S)-(2-(3-(5-methylpyridin-2-yloxy)pyrrolidin-1-yl)-5-(pyridin-2-yl)phenyl)methanol]
- IC50 [1, 5]: > 1000 nM
- IC50 [1, 6]: > 3200 nM
- hTRPV3 HAMA IC50 (nM) (5 min) [2]: no fit (5 min) no fit (30 min)
- hTRPV3 HAMA IC50 (nM) (30 min) [2]: no fit (5 min) no fit (30 min)

SMILES: OCc1ccc(Oc2ccccc2Cl)cc1N1CC[C@H](Oc2ccc(C(F)(F)F)cn2)C1 [Compound 1-224, (S)-(4-(2-chlorophenoxy)-2-(3-(5-(trifluoromethyl)pyridin-2-yloxy)pyrrolidin-1-yl)phenyl)methanol]
- IC50 [1, 5]: 100 to 1000 nM
- IC50 [1, 6]: 161 nM
- hTRPV3 HAMA IC50 (nM) (5 min) [2]: no fit (5 min) no fit (30 min)
- hTRPV3 HAMA IC50 (nM) (30 min) [2]: no fit (5 min) no fit (30 min)

SMILES: OCc1ccc(-c2ccccc2Cl)cc1N1CC[C@H](Oc2ccc(C(F)(F)F)cn2)C1 [Compound 1-225, (S)-(2′-chloro-3-(3-(5-(trifluoromethyl)pyridin-2-yloxy)pyrrolidin-1-yl)biphenyl-4-yl)methanol]
- IC50 [1, 5]: 100 to 1000 nM
- IC50 [1, 6]: 215 nM
- hTRPV3 HAMA IC50 (nM) (5 min) [2]: no fit (5 min) no fit (30 min)
- hTRPV3 HAMA IC50 (nM) (30 min) [2]: no fit (5 min) no fit (30 min)

SMILES: Cc1ccccc1Oc1ccc(N2CC[C@H](Oc3ccc(C(F)(F)F)cn3)C2)c(CO)n1 [Compound 1-226, (S)-(6-(o-tolyloxy)-3-(3-(5-(trifluoromethyl)pyridin-2-yloxy)pyrrolidin-1-yl)pyridin-2-yl)methanol]
- IC50 [1, 5]: 100 to 1000 nM
- IC50 [1, 6]: ~158 nM
- hTRPV3 HAMA IC50 (nM) (5 min) [2]: no fit (5 min) no fit (30 min)
- hTRPV3 HAMA IC50 (nM) (30 min) [2]: no fit (5 min) no fit (30 min)

SMILES: CCc1ccccc1-c1ccc(CO)c(N2CC[C@H](Oc3ccc(C(F)(F)F)cn3)C2)c1 [Compound 1-227, (S)-(2′-ethyl-3-(3-(5-(trifluoromethyl)pyridin-2-yloxy)pyrrolidin-1-yl)biphenyl-4-yl)methanol]
- IC50 [1, 5]: 100 to 1000 nM
- IC50 [1, 6]: 200 nM
- hTRPV3 HAMA IC50 (nM) (5 min) [2]: no fit (5 min) no fit (30 min)
- hTRPV3 HAMA IC50 (nM) (30 min) [2]: no fit (5 min) no fit (30 min)

SMILES: CCc1c(C)cccc1-c1ccc(C2CCN(C(=O)c3ccc(Cl)cn3)C2)c(CO)c1 (stereo not shown) [Compound 2-67, (5-chloropyridin-2-yl)(3-(2′-ethyl-3-(hydroxymethyl)-3′-methylbiphenyl-4-yl)pyrrolidin-1-yl)methanone]
- IC50 [1, 9]: 0.698 nM
- IC50 [1, 5]: < 10 nM
- solubility at 40 min [3]: ~3.6 µM (≈ 1.57 µg/mL)
- half-life at 1 μM [4]: 8.47 min

SMILES: CCc1ccccc1-c1ccc(C2CCN(C(=O)c3ccc(OC)cn3)C2)c(CO)c1 (stereo not shown) [Compound 2-73, (3-(2′-ethyl-3-(hydroxymethyl)biphenyl-4-yl)pyrrolidin-1-yl)(5-methoxypyridin-2-yl)methanone]
- IC50 [1, 9]: 20.5 nM
- IC50 [1, 5]: 10 to 100 nM
- solubility at 40 min [3]: > 26.2 µM
- half-life at 1 μM [4]: 9.84 min

SMILES: CC(C)c1ccccc1-c1ccc([C@@H]2CCN(C(=O)c3ccc(F)cn3)C2)c(CO)c1 [Compound 2-77]
- IC50 [1, 9]: 2.27 nM
- IC50 [1, 5]: < 10 nM
- solubility at 40 min [3]: > 15.5 µM
- half-life at 1 μM [4]: 9.14 min

SMILES: CC(C)c1ccccc1-c1ccc([C@H]2CCN(C(=O)c3ccc(F)cn3)C2)c(CO)c1 [Compound 2-78]
- IC50 [1, 9]: 234 nM
- IC50 [1, 5]: 100 to 1000 nM
- solubility at 40 min [3]: > 15.4 µM
- half-life at 1 μM [4]: 12.1 min

SMILES: COc1cnc(C(=O)N2CCC(c3ccc(-c4ccccc4C4CC4)cc3CO)C2)cn1 (stereo not shown) [Compound 2-107]
- IC50 [1, 9]: 31.5 nM
- IC50 [1, 5]: 10 to 100 nM
- solubility at 40 min [3]: 9.25 µM (≈ 3.97 µg/mL)
- half-life at 1 μM [4]: 25.7 min
